Laboratory results published in US12497365B2, “4-pyridinyl formamide compound or derivative thereof, preparation method therefor, herbicidal composition and use thereof” (Qingdao Kingagroot Chemical Compound Co., Ltd., priority 2019, dated 2025).

Legend:
Test in all cases: Weeding effect in post-emergence stage
Type in all cases: in vivo
Conditions in all cases: active ingredient 2000 g/ha, 3 weeks after application, fresh weight control rate
[1] = tested on: Amaranthus retroflexus L.
Outline: (§1)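 Control of growth was scored on fresh weight 3 weeks after a post-emergence spray-tower application. Rates were 2000, 1000, 500, 250 or 125 g/ha, formulated in acetone/Tween 80 plus methyl oleate concentrate (1.5 L/ha), and applied to potted plants at the 2-3 leaf stage.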

Abutilon theophrasti = tested on: Abutilon theophrasti
Outline: as §1

Chenopodium album = tested on: Chenopodium album
Outline: as §1

Descurainia sophia = tested on: Descurainia sophia
Outline: as §1

SMILES | Weeding effect, activity level (growth control rate), Amaranthus retroflexus L. [1] | Weeding effect, activity level (growth control rate), Abutilon theophrasti (Abutilon theophrasti) | Weeding effect, activity level (growth control rate), Chenopodium album (Chenopodium album) | Weeding effect, activity level (growth control rate), Descurainia sophia (Descurainia sophia)
Cn1nnnc1NC(=O)c1ccnc(-c2ccnc(F)c2)c1Cl [Compound 1-149] | 5 (Level 5: growth control rate is above 85%) | 5 (Level 5: growth control rate is above 85%) | 5 (Level 5: growth control rate is above 85%) | 5 (Level 5: growth control rate is above 85%)
Cn1nnnc1NC(=O)c1ccnc(-c2ccncc2F)c1Cl [Compound 1-150] | 5 (Level 5: growth control rate is above 85%) | 5 (Level 5: growth control rate is above 85%) | 5 (Level 5: growth control rate is above 85%) | 5 (Level 5: growth control rate is above 85%)
Cn1nnnc1NC(=O)c1ccnc(-c2ccnc(Cl)c2)c1Cl [Compound 1-151] | 5 (Level 5: growth control rate is above 85%) | 5 (Level 5: growth control rate is above 85%) | 5 (Level 5: growth control rate is above 85%) | 5 (Level 5: growth control rate is above 85%)
Cn1nnnc1NC(=O)c1ccnc(-c2ccnc(Cl)c2Cl)c1Cl [Compound 1-152] | 5 (Level 5: growth control rate is above 85%) | 5 (Level 5: growth control rate is above 85%) | 5 (Level 5: growth control rate is above 85%) | 5 (Level 5: growth control rate is above 85%)
Cn1nnnc1NC(=O)c1ccnc(-c2cc(Cl)nc(Cl)c2)c1Cl [Compound 1-153] | 5 (Level 5: growth control rate is above 85%) | 5 (Level 5: growth control rate is above 85%) | 5 (Level 5: growth control rate is above 85%) | 5 (Level 5: growth control rate is above 85%)
Cn1nnnc1NC(=O)c1ccnc(-c2ccc(F)nn2)c1Cl [Compound 1-154] | 5 (Level 5: growth control rate is above 85%) | 5 (Level 5: growth control rate is above 85%) | 5 (Level 5: growth control rate is above 85%) | 5 (Level 5: growth control rate is above 85%)
Cn1nnnc1NC(=O)c1ccnc(-c2ccc(C#N)nn2)c1Cl [Compound 1-155] | 5 (Level 5: growth control rate is above 85%) | 5 (Level 5: growth control rate is above 85%) | 5 (Level 5: growth control rate is above 85%) | 5 (Level 5: growth control rate is above 85%)
Cn1nnnc1NC(=O)c1ccnc(-c2cncnc2)c1Cl [Compound 1-156] | 5 (Level 5: growth control rate is above 85%) | 5 (Level 5: growth control rate is above 85%) | 5 (Level 5: growth control rate is above 85%) | 5 (Level 5: growth control rate is above 85%)
